Patent US4206215A, “Antimicrobial bis-[4-(substituted-amino)-1-pyridinium]alkanes” (Sterling Drug Inc., priority 1977, dated 1980)
Where two headings read alike, the source gives them in different places.

Legend:
[1] = tested on: Ps. aerug. MGH-2; experiment: In vitro antibacterial activity, MIC (modified Autotiter method); assay type: cell-based, Pseudomonas aeruginosa; settings: Pseudomonas aeruginosa, 20 h, read-out: MIC Ps. aerug. MGH-2
Experimental: (§1) The antibacterial and antifungal activity of representative examples of the compounds of Formula I was determined using a modification of the Autotiter method described by Goss, et al. Applied Microbiology 16 (9) 1,414-1,416 (1968) in which a 1,000 mcg./ml. solution of the test compound is prepared. To the first cup of the Autotray is added 0.1 ml. of the test solution. Activation of the Autotiter initiates a sequence of operations by which 0.05 ml. of the test compound solution is withdrawn from the cup by a Microtiter transfer loop and diluted in 0.05 ml. of sterile water. Following this operation, 0.05 ml. of inoculated double-strength semisynthetic medium (glucose) is added automatically to each cup. The overall operation results in final drug concentrations ranging from 500 to 0.06 mcg./ml. in twofold decrements. […] The compounds were thus tested as solutions against a variety of gram positive and gram negative bacteria including Staphylococcus aureus, Proteus mirabilis, Escherichia coli, Klebsiella pneumoniae, Pseudomonas aeruginosa, Streptococcus pyogenes, and against such fungi as Aspergillus niger, Candida albicans and Trichophyton mentagrophytes.

[2] = tested on: S. pyogen. C203; experiment: as above; assay type: cell-based, Streptococcus pyogenes; settings: Streptococcus pyogenes, 20 h, read-out: MIC S. pyogen. C203
Experimental: as §1

[3] = tested on: E. coli 100/B22; experiment: as above; assay type: cell-based, Escherichia coli; settings: Escherichia coli, 100/B22, 20 h
Experimental: as §1

[4] = tested on: E. coli AB1932-1; experiment: as above; assay type: cell-based, Escherichia coli; settings: Escherichia coli, AB19321, 20 h, read-out: MIC E. coli AB1932-1
Experimental: as §1

[5] = tested on: E. coli Vogel; experiment: as above; assay type: cell-based, Escherichia coli; settings: Escherichia coli, 20 h, read-out: MIC E. coli Vogel
Experimental: as §1

[6] = tested on: A. niger 16404; experiment: In vitro antifungal activity, MIC (modified Autotiter method); assay type: cell-based, Aspergillus niger; settings: Aspergillus niger, 16404, 20 h, read-out: MIC A. niger 16404
Experimental: as §1

[7] = tested on: S. Aureus Smith; experiment: In vitro antibacterial activity, MIC (modified Autotiter method); assay type: cell-based, Staphylococcus aureus; settings: Staphylococcus aureus, 20 h, read-out: MIC S. Aureus Smith
Experimental: as §1

[8] = tested on: C. albicans 10231; experiment: In vitro antifungal activity, MIC (modified Autotiter method); assay type: cell-based, Candida albicans; settings: Candida albicans, 10231, 20 h, read-out: MIC C. albicans 10231
Experimental: as §1

[9] = tested on: C. albicans Wisc.; experiment: as above; assay type: cell-based, Candida albicans; settings: Candida albicans, 20 h, read-out: MIC C. albicans Wisc.
Experimental: as §1

[10] = tested on: K. pneum. 39645; experiment: In vitro antibacterial activity, MIC (modified Autotiter method); assay type: cell-based, Klebsiella pneumoniae; settings: Klebsiella pneumoniae, 20 h, read-out: MIC K. pneum. 39645
Experimental: as §1

[11] = tested on: P. mirab. MGH-1; experiment: as above; assay type: cell-based, Proteus mirabilis; settings: Proteus mirabilis, 20 h, read-out: MIC P. mirab. MGH-1
Experimental: as §1

[12] = tested on: T. menta. 9129; experiment: In vitro antifungal activity, MIC (modified Autotiter method); assay type: cell-based, Trichophyton mentagrophytes; settings: Trichophyton mentagrophytes, 20 h, read-out: MIC T. menta. 9129
Experimental: as §1

[13] = 18-20 hours at 37° C., read-out: MIC E. coli 100/B22

SMILES | MIC ([1]; 18-20 hours at 37° C.) | MIC ([2]; 18-20 hours at 37° C.) | MIC [3, 13] | MIC ([4]; 18-20 hours at 37° C.) | MIC ([5]; 18-20 hours at 37° C.) | MIC ([6]; 18-20 hours at 37° C.) | MIC ([7]; 18-20 hours at 37° C.) | MIC ([8]; 18-20 hours at 37° C.) | MIC ([9]; 18-20 hours at 37° C.) | MIC ([10]; 18-20 hours at 37° C.) | MIC ([11]; 18-20 hours at 37° C.) | MIC ([12]; 18-20 hours at 37° C.) | further results
CCCCCCCCCCCCNc1cc[n+](CCCCCCC[n+]2ccc(NCCCCCCCCCCCC)cc2)cc1 [Example 71, 1,7-bis-[4-(dodecylamino)-1-pyridinium]heptane dibromide] | 62.5 µg/mL | 7.8 µg/mL | 62.5 µg/mL | 62.5 µg/mL | 62.5 µg/mL | 62.5 µg/mL | 3.9 µg/mL | 62.5 µg/mL | 62.5 µg/mL | > 62.5 µg/mL | 62.5 µg/mL | 7.8 µg/mL | –
CCCCCCCCCCCCNc1cc[n+](CCCCCCCC[n+]2ccc(NCCCCCCCCCCCC)cc2)cc1 [Example 72, 1,8-bis-[4-(dodecylamino)-1-pyridinium]octane dibromide] | > 62.5 µg/mL | 15.6 µg/mL | > 62.5 µg/mL | 62.5 µg/mL | 31.3 µg/mL | > 62.5 µg/mL | 7.8 µg/mL | 31.3 µg/mL | 31.3 µg/mL | > 62.5 µg/mL | 62.5 µg/mL | 7.8 µg/mL | –
CCCCCCCCCCCCNc1cc[n+](CCCCCCCCC[n+]2ccc(NCCCCCCCCCCCC)cc2)cc1 [Example 73, 1,9-bis-[4-(dodecylamino)-1-pyridinium]nonane dibromide] | > 62.5 µg/mL | 15.6 µg/mL | 62.5 µg/mL | > 62.5 µg/mL | 62.5 µg/mL | > 62.5 µg/mL | 7.8 µg/mL | > 62.5 µg/mL | 31.3 µg/mL | > 62.5 µg/mL | 62.5 µg/mL | 7.8 µg/mL | –
CCCCCCCCCCCCNc1cc[n+](CCCCCCCCCC[n+]2ccc(NCCCCCCCCCCCC)cc2)cc1 [Example 74, 1,10-bis-[4-(dodecylamino)-1-pyridinium]decane dibromide] | > 62.5 µg/mL | 15.6 µg/mL | > 62.5 µg/mL | > 62.5 µg/mL | > 62.5 µg/mL | > 62.5 µg/mL | 15.6 µg/mL | > 62.5 µg/mL | > 62.5 µg/mL | > 62.5 µg/mL | > 62.5 µg/mL | 15.6 µg/mL | –
CCCCCCCCCCCCNc1cc[n+](CCCCCCCCCCCC[n+]2ccc(NCCCCCCCCCCCC)cc2)cc1 [Example 75, 1,12-bis-[4-(dodecylamino)-1-pyridinium]dodecane dibromide] | > 62.5 µg/mL | 15.6 µg/mL | > 62.5 µg/mL | > 62.5 µg/mL | > 62.5 µg/mL | > 62.5 µg/mL | 31.3 µg/mL | > 62.5 µg/mL | > 62.5 µg/mL | > 62.5 µg/mL | > 62.5 µg/mL | 15.6 µg/mL | –
Clc1ccc(Nc2cc[n+](CCCC[n+]3ccc(Nc4ccc(Cl)cc4)cc3)cc2)cc1 [Example 76C, 1,4-bis-[4-(p-chlorophenylamino)-1-pyridinium]butane dimethanesulfonate] | > 125 µg/mL | 1.95 µg/mL | 15.6 µg/mL | 7.8 µg/mL | 15.6 µg/mL | > 250 µg/mL | 7.8 µg/mL | 125 µg/mL | 12.5 µg/mL | > 250 µg/mL | > 250 µg/mL | 62.5 µg/mL | –
Clc1ccc(Nc2cc[n+](CCCCCC[n+]3ccc(Nc4ccc(Cl)cc4)cc3)cc2)cc1 [Example 77B, 1,6-bis-[4-(p-chlorophenylamino)-1-pyridinium]hexane dimethanesulfonate] | 500 µg/mL | 1.95 µg/mL | 15.6 µg/mL | 3.9 µg/mL | 15.6 µg/mL | 62.5 µg/mL | 3.9 µg/mL | 62.5 µg/mL | 125 µg/mL | 500 µg/mL | 500 µg/mL | 15.6 µg/mL | –
Clc1ccc(Nc2cc[n+](CCCCCCCC[n+]3ccc(Nc4ccc(Cl)cc4)cc3)cc2)cc1 [Example 78B, 1,8-bis-[4-(p-chlorophenylamino)-1-pyridinium]octane dimethanesulfonate] | 125 µg/mL | 0.2 µg/mL | 3.1 µg/mL | 1.6 µg/mL | 3.1 µg/mL | 31.3 µg/mL | 0.4 µg/mL | 62.5 µg/mL | 62.5 µg/mL | 31.3 µg/mL | 125 µg/mL | 31.3 µg/mL | –
Clc1ccc(Nc2cc[n+](CCCCC[n+]3ccc(Nc4ccc(Cl)cc4)cc3)cc2)cc1 [Example 80, 1,5-bis-[4-(p-chlorophenylamino)-1-pyridinium]pentane dibromide] | > 125 µg/mL | 1.95 µg/mL | 125 µg/mL | 31.3 µg/mL | 125 µg/mL | 62.5 µg/mL | 7.8 µg/mL | 62.5 µg/mL | 62.5 µg/mL | > 125 µg/mL | > 125 µg/mL | 15.6 µg/mL | –
Fc1ccc(Nc2cc[n+](CCCCCC[n+]3ccc(Nc4ccc(F)cc4)cc3)cc2)cc1 [Example 83B, 1,6-bis-[4-(p-fluorophenylamino)-1-pyridinium]hexane dibromide] | > 62.5 µg/mL | 7.8 µg/mL | 15.6 µg/mL | 15.6 µg/mL | 31.3 µg/mL | 31.3 µg/mL | 15.6 µg/mL | 31.3 µg/mL | 31.3 µg/mL | > 125 µg/mL | > 125 µg/mL | 31.3 µg/mL | –
Fc1ccc(Nc2cc[n+](CCCCCCCC[n+]3ccc(Nc4ccc(F)cc4)cc3)cc2)cc1 [Example 84, 1,8-bis-[4-p-fluorophenylamino)-1-pyridinium]octane dibromide] | > 62.5 µg/mL | 7.8 µg/mL | 15.6 µg/mL | 7.8 µg/mL | 15.6 µg/mL | 15.6 µg/mL | 1.95 µg/mL | 15.6 µg/mL | 7.8 µg/mL | > 62.5 µg/mL | > 125 µg/mL | 15.6 µg/mL | –
Nc1cc[n+](CCCCCCCC[n+]2ccc(N)cc2)cc1 [I, 1,8-bis-(4-amino-1-pyridinium)octane dibromide, reference compound] | > 500 µg/mL | 31.3 µg/mL | 250 µg/mL | 125 µg/mL | 125 µg/mL | 125 µg/mL | 31.3 µg/mL | 125 µg/mL | 125 µg/mL | > 500 µg/mL | > 500 µg/mL | 125 µg/mL | –
Nc1cc[n+](CCCCCCCCCC[n+]2ccc(N)cc2)cc1 [II, 1,10-bis-(4-amino-1-pyridinium)decane dibromide, reference compound] | – | – | – | – | – | – | – | – | – | – | – | – | MIC [1]: 500 µg/mL; MIC [2]: 7.8 µg/mL; MIC ([3]; read-out: MIC E. coli 100/B22, 18-20 hours at 37° C.): 62.5 µg/mL; MIC [4]: 31.3 µg/mL; MIC [5]: 62.5 µg/mL; MIC [6]: 125 µg/mL; MIC [7]: 7.8 µg/mL; MIC [8]: 250 µg/mL; MIC [9]: 62.5 µg/mL; MIC [10]: 250 µg/mL; MIC [11]: > 500 µg/mL; MIC [12]: 15.6 µg/mL
